Reference: US12251383B2, “Methods and compositions for KRAS inhibitors” (The Board of Regents of the University of Texas System, priority 2019, dated 2025)
“Also recorded” adds a separate entry of the source. Read-outs that look alike come from different tables or passages of the source.

How the values were obtained:
KRAS^G12D = experiment: Cell signaling (Western) in BHK cells expressing KRAS G12D; assay type: cell-based, hamster; conditions: for IC50: Mesocricetus auratus, BHK, 3 h
Description: (§1) Cell signaling. The inhibitory potential of compounds was tested in monoclonal Baby Hamster Kidney (BHK) cell lines stably expressing monomeric green fluorescence protein (mGFP)-tagged KRAS^G12D, K-Ras^G12V and HRAS^G12V. Cells were cultured in Dulbecco's Modified Eagle Medium (DMEM, Hyclone) supplemented with 10% v/v bovine calf serum and incubated with compound or vehicle (DMSO) for 3 h without serum. Cells were then harvested in lysis buffer (50 mM Tris (pH 7.5), 75 mM NaCl, 25 mM NaF, 5 mM MgCl2, 5 mM EGTA, 1 mM dithiothreitol, 100 μM NaVO4, 1% Nonidet P40 plus protease inhibitors) and subjected to Western analysis controlling protein loading by BCA (bicinchoninic acid) assay. Lysates were resolved with Bio-Rad polyacrylamide TGX 10% gel, transferred to polyvinylidene fluoride (PVDF) membrane and immunoblotted using pan-AKT (2920S), GFP (2956S), pAKT^S473 (4060L), p-cRaf^S338 (9427S), p-ERK^T202/Y204 (4370L), ERK1/2 (4695S) or β-actin antibodies (Cell Signaling Technology). IC50 values were calculated with Prism 4-parameter fit.
Cell signaling assays identify compound 11 as a promising initial hit Western analysis was used to quickly assess the potential impact of the predicted hits on MAPK signaling, a major pathway mediated by KRAS. Specifically, ERK1/2 phosphorylation levels (p-ERK) were monitored in BHK cells stably expressing KRAS^G12D treated with vehicle (DMSO), the MEK inhibitor […] (U) or compound at four different concentrations (1-100 μM). […] Compounds 9 and 11 (structures for compounds 1-11 are provided in Appendix I, attached hereto), on the other hand, decreased p-ERK levels at concentrations ≥50 μM and ≥5 μM, respectively. To verify the latter observation, the experiments were repeated in an expanded concentration range starting from 0.1 μM. […] However, compound 9 (see Appendix I, attached hereto) increased p-ERK levels at 25 and 38 μM in contrast to the decrease observed at higher concentrations (FIG. S1B; see Appendix I, attached hereto).

HRAS^G12V = experiment: Cell signaling (Western) in BHK cells expressing HRAS G12V; assay type: cell-based, hamster
Description: as §1

[1] = molecular target: T1, KRAS^G12D-cRaf interaction (Homo sapiens, UniProt P01116, G12D); experiment: FLIM-FRET of GFP-KRAS G12D and RFP-cRaf in BHK cells; assay type: cell-based, hamster; conditions: 1 μM
T1 construct: expressed in transfected cells; host or cells: BHK (baby hamster kidney) cells, transient expression
Description: [formula] where P1 is polarization of free KRAS, P2 is polarization of Raf-bound KRAS, c is the total concentration of KRAS, and x the total concentration of Raf^RBD. (FIG. 2B) Amount of GFP-KRAS^G12D pulled down by GST-Raf^RBD after treatment of cell lysates with compound at the concentrations indicated (representative Westerns are shown at the top). The RBD sequence length was 1-149 and 51-131 in the fluorescence polarization and pull-down assays, respectively. (FIG. 2C) GFP fluorescence lifetime from FLIM-FRET using cells expressing GFP-KRAS^G12D alone or with RFP-Raf, with or without treatment by 1 μM compound 11. Data are shown as mean±S.E; significance estimated by one-way analysis of variance.
Fluorescence lifetime imaging (FLIM)-fluorescence resonance energy transfer (FRET). FLIM-FRET experiments were carried out using a lifetime fluorescence imaging attachment (Lambert Instruments, The Netherlands) on an inverted microscope (43). BHK cells transiently expressing mGFP-tagged KRAS^G12D (donor), alone or with mRFP-tagged cRaf^WT (acceptor) (using 1:5 ratio), were prepared as indicated in each experiment. The samples were excited using a sinusoidally modulated 3 W 470 nm light-emitting diode at 40 MHz under epi-illumination. Fluorescein was used as a lifetime reference standard. […] The phase and modulation were determined from 12 phase settings using the manufacturer's software. […]

[2] = tested on: RASless MEF cells expressing BRAF V600E; experiment: Proliferation of RASless MEF cells expressing BRAF V600E; assay type: cell-based; conditions: Mus musculus, normalized to DMSO control, 3 measurements, read-out: IC50 for inhibition of proliferation
Description: Cell numbers were averaged from 3 independent measurements and normalized with respect to DMSO control. Assays were conducted as described in McCarthy et al, (ACS Omega2019, 4, 2, 2921-2930).

[3] = Solubility in DMSO and common solvents; assay type: physicochemical; conditions: DMSO

| Structure (SMILES) | concentration at which p-ERK levels are decreased (KRAS^G12D; BHK KRAS^G12D) | effect on p-ERK levels (KRAS^G12D; BHK KRAS^G12D) | effect on p-cRaf levels (KRAS^G12D; BHK KRAS^G12D) | reduction of p-ERK levels (KRAS^G12D; BHK KRAS^G12D, at 5 μM) | IC50 (KRAS^G12D; read-out: IC50 for p-ERK) | IC50 (KRAS^G12D; read-out: IC50 for p-cRaf) | effect on p-AKT levels (HRAS^G12V) | effect on p-ERK levels (HRAS^G12V) | effect on p-cRaf levels (HRAS^G12V) | KRAS^G12D-cRaf interaction (quenching of GFP fluorescence lifetime) [1] | IC50 [2] | solubility [3] |
| --- | --- | --- | --- | --- | --- | --- | --- | --- | --- | --- | --- | --- |
| Cc1nn2c(N3CCN(CCO)CC3)cc(-c3ccccc3)nc2c1-c1ccccc1 [Compound 11, 2-[4-(8-methyl-3,9-diphenyl-2,6,7-triazabicyclo[4.3.0]nona-2,4,7,9-tetraen-5-yl)piperazin-1-yl]ethanol] | ≥ 5 µM | dose-dependently reduced; also recorded: dose-dependently decreases | dose-dependently reduced; also recorded: dose-dependently decreases | ~50% | 1300 nM | 700 nM | no major effect | not and no significant effect | not and no significant effect | significantly reduced | 1680 ± 170 nM |  |
| Cc1cc(N2CCN(CCO)CC2)n2nc(C)c(-c3ccccc3)c2n1 [Compound 13] |  |  |  |  |  |  |  |  |  |  |  | readily soluble |
